Source: ChEMBL document CHEMBL3864183, “Development of ML390: A Human DHODH Inhibitor That Induces Differentiation in Acute Myeloid Leukemia” (ACS Med Chem Lett, 2016)
Values after ≈ are worked out from the molar mass of the structure shown.

How the values were obtained:
[1] = target: Dihydroorotate dehydrogenase (quinone), mitochondrial (Homo sapiens, UniProt Q02127); test: Inhibition of human recombinant DHODH
[2] = Induction of bone marrow cell differentiation isolated from ER-HOXA9 fusion protein expressed mouse harboring GFP-lysozyme assessed as upregulation of CD11b/MAC1 after 4 days by flow cytometry; type: functional, cell-based; details: 96 h
U-937 = test: Induction of human U937 cell differentiation after 4 days by flow cytometry; type: functional, cell-based; details: U-937, 96 h
THP-1 = test: Induction of human THP1 cell differentiation after 4 days by flow cytometry; type: functional, cell-based; details: THP-1, 96 h
[3] = Solubility of the compound in PBS at pH 7.4; type: physicochemical
[4] = Protein binding in mouse plasma; type: ADME, cell-free; details: read-out: PPB
[5] = Protein binding in human plasma; type: ADME, cell-free; details: read-out: PPB
[6] = Stability of the compound in human plasma for 5 hrs; type: ADME, cell-free
[7] = Stability of the compound in PBS for 24 hrs; type: physicochemical; details: buffer

Dihydroorotate dehydrogenase (quinone), mitochondrial, sequence (Q02127 whole entry, the tested form may be a part): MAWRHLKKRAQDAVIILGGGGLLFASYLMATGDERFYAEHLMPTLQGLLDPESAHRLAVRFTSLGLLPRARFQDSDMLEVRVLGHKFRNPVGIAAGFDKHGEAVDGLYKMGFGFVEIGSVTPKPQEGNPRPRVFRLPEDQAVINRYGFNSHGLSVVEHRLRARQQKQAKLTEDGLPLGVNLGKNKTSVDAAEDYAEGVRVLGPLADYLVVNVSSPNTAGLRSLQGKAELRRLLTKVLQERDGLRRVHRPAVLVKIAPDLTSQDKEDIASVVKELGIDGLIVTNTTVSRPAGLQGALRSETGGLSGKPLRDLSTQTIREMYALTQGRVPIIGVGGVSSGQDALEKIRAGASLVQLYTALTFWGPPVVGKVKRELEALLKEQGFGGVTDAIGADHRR

Structure (SMILES) | IC50 [1] [µM] | EC50 [2] [µM] | EC50 (U-937) [µM] | EC50 (THP-1) [µM] | also measured
O=C(CNC(=O)c1ccc(Cl)cc1)N[C@@H]1CCCc2ccccc21 | > 20 |  |  |  | 
O=C(CCNC(=O)c1ccc2c(c1)OC(F)(F)O2)N[C@@H]1CCCc2ccccc21 | 2.7 | 4.7 | 4.4 | 4.3 | 
O=C(CCNC(=O)c1ccc(Cl)c(Cl)c1)N[C@@H]1CCCc2ccccc21 | 1.5 | 3.2 | 2.4 | 2.5 | 
O=C(CNC(=O)c1ccc(OC(F)(F)F)cc1)N[C@@H]1CCCc2ccccc21 | > 20 |  |  |  | 
N#Cc1ccc(C(=O)NCCC(=O)N[C@@H]2CCCc3ccccc32)cc1 | 8.9 |  |  |  | 
O=C(O)c1cccnc1Nc1ccc(F)cc1 | 2.8 | > 20 | > 20 | > 20 | 
O=C(O)c1cccnc1Nc1ccccc1 | 17.4 | > 20 | > 20 | > 20 | 
O=C(CNC(=O)c1ccc(C(F)(F)F)cc1)N[C@@H]1CCCc2ccccc21 | > 20 |  |  |  | 
O=C(CCCNC(=O)c1ccc(Cl)cc1)N[C@@H]1CCCc2ccccc21 | > 20 |  |  |  | 
O=C(O)c1ccccc1Nc1ccc(Cl)cc1 | 0.42 | 10 | 17 | > 20 | 
O=C(CCCNC(=O)c1ccc(C(F)(F)F)cc1)N[C@@H]1CCCc2ccccc21 | > 20 |  |  |  | 
O=C(CNC(=O)c1ccc(Cl)c(Cl)c1)N[C@@H]1CCCc2ccccc21 | > 20 |  |  |  | 
O=C(O)c1ccc(Cl)cc1Nc1ccccc1 | > 20 | > 20 | > 20 | > 20 | 
O=C(CCCNC(=O)c1ccc(OC(F)(F)F)cc1)N[C@@H]1CCCc2ccccc21 | > 20 |  |  |  | 
O=C(CCNC(=O)c1ccc(F)cc1)N[C@@H]1CCCc2ccccc21 | 9.5 |  |  |  | 
O=C(O)c1cccnc1Nc1ccc(OC(F)(F)F)cc1 | 0.5 | 3.7 | 5.6 | 7.7 | 
O=C(CCNC(=O)c1ccccc1)N[C@@H]1CCCc2ccccc21 | 12.4 |  |  |  | 
COc1ccc(C(=O)NCCC(=O)N[C@@H]2CCCc3ccccc32)cc1 | 3.6 | 5 | 12 | 5.1 | 
Cc1ccc(C(=O)NCCC(=O)N[C@@H]2CCCc3ccccc32)cc1 | 1.9 | 8.1 | 4.2 | 2.7 | 
O=C(O)c1cccnc1Nc1ccc(Cl)cc1 | 0.4 | 3 | 6.1 | 10.7 | 
O=C(CCNC(=O)c1ccc(OC(F)(F)F)cc1)N[C@@H]1CCCc2ccccc21 | 0.56 | 1.8 | 8.8 | 6.5 | solubility [3]: 2.5 µM (≈ 1.02 µg/mL); fraction unbound [4]: 0.01; fraction unbound [5]: 0.01; Stability [6]: Stable; Stability [7]: Stable
O=C(O)c1cccnc1Nc1cccc(C(F)(F)F)c1 [NIFLUMIC ACID] | 17 | > 20 | > 20 | > 20 | 
COc1ccc(Nc2ccccc2C(=O)O)cc1 | 10 | > 20 | > 20 | > 20 | 
O=C(CCNC(=O)c1ccc(C(F)(F)F)cc1)N[C@@H]1CCCc2ccccc21 | 0.91 | 3.6 | 2.7 | 2.5 | 
O=C(CCCNC(=O)c1ccc(Cl)c(Cl)c1)N[C@@H]1CCCc2ccccc21 | > 20 |  |  |  | 
O=C(CCNC(=O)c1cccc(Cl)c1)N[C@@H]1CCCc2ccccc21 | 7.4 | 7.9 | 8.8 | 6.5 | 
Cc1c(Nc2ncccc2C(=O)O)cccc1C(F)(F)F [FLUNIXIN] | 8 | 16 | > 20 | > 20 | 
Cc1c(Cl)cccc1Nc1ncccc1C(=O)O [CLONIXIN] | 13 | > 20 | > 20 | > 20 | 
Cc1c(-c2ccc(-c3ccccc3F)cc2)nc2ccc(F)cc2c1C(=O)O [BREQUINAR] |  | 0.51 | 0.044 | 0.094 | 
O=C(CCNC(=O)c1ccc(Cl)cc1)N[C@@H]1CCCc2ccccc21 | 1.3 | 4.5 | 5.6 | 3.2 | 
